Key:
Design in all cases: key: 0: normal development; 1: Less damaged; 2: Slightly damaged; 3: Moderately damaged; 4: Severely damaged; 5: All killed
young rice plant = test: Herbicidal test for paddy field; type: in vivo; details: paddy field pot, 500 g/ha dropwise at 1.5 leaf stage of barnyardgrass, 3 weeks, rank vs non-treated
In short: (§1)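 Ube alluvial soil in pots flooded to 3 cm water depth, sown with seeds or tubers. Wettable powder diluted in water with 0.05% surfactant was dripped onto the water at 500 g/ha when barnyardgrass reached the 1.5-leaf stage. After 3 weeks in a glasshouse at an average of 25° C, damage was scored 0 (normal) to 5 (all killed) against untreated pots.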

barnyardgrass [1] = test: Herbicidal test for paddy field; type: in vivo, Echinochloa crusgalli; details: paddy field pot, 500 g/ha dropwise at 1.5 leaf stage of barnyardgrass, 3 weeks, rank vs non-treated
In short: as §1

monochoria = test: Herbicidal test for paddy field; type: in vivo, Monochoria vaginalis; details: paddy field pot, 500 g/ha dropwise at 1.5 leaf stage of barnyardgrass, 3 weeks, rank vs non-treated
In short: as §1

corn = test: Soil treatment test for upland field; type: in vivo; details: 500 g/ha, glass house 25° C., 3 weeks
In short: (§2)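 Compounds were formulated as wettable powders and applied pre-emergence to the surface of freshly sown alluvial soil at 500 g/ha. After three weeks in a glass house averaging 25° C, damage was rated from 0 (normal development) to 5 (all killed).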

cotton = test: Soil treatment test for upland field; type: in vivo; details: 500 g/ha, glass house 25° C., 3 weeks
In short: as §2

solgum = test: Soil treatment test for upland field; type: in vivo; details: 500 g/ha, glass house 25° C., 3 weeks
In short: as §2

soybean = test: Soil treatment test for upland field; type: in vivo; details: 500 g/ha, glass house 25° C., 3 weeks
In short: as §2

sugar beat = test: Soil treatment test for upland field; type: in vivo; details: 500 g/ha, glass house 25° C., 3 weeks
In short: as §2

wheat = test: Soil treatment test for upland field; type: in vivo; details: 500 g/ha, glass house 25° C., 3 weeks
In short: as §2

Large crabgrass = test: Soil treatment test for upland field; type: in vivo, Digitaria adscendens; details: 500 g/ha, glass house 25° C., 3 weeks
In short: as §2

barnyardgrass [2] = test: Soil treatment test for upland field; type: in vivo, Echinochloa crusgalli; details: 500 g/ha, glass house 25° C., 3 weeks
In short: as §2

blackgrass [3] = test: Soil treatment test for upland field; type: in vivo, Alopecurus aegualis; details: 500 g/ha, glass house 25° C., 3 weeks
In short: as §2

annual bluegrass [4] = test: Soil treatment test for upland field; type: in vivo, Poa annua; details: 500 g/ha, glass house 25° C., 3 weeks
In short: as §2

livid amaranth [5] = test: Soil treatment test for upland field; type: in vivo, Amaranthus lividus; details: 500 g/ha, glass house 25° C., 3 weeks
In short: as §2

blackgrass [6] = test: Foliar spread test for upland field; type: in vivo, Alopecurus aegualis; details: foliar spray 500 ppm, 3 weeks, rank vs non-treated
In short: (§3)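 Post-emergence foliar spray, 500 ppm (wettable powder in water + 0.5% surfactant), on ~2-week-old plants grown in volcanic ash soil; glasshouse, avg 25° C, 3 wk; visual damage score 0–5.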

annual bluegrass [7] = test: Foliar spread test for upland field; type: in vivo, Poa annua; details: foliar spray 500 ppm, 3 weeks, rank vs non-treated
In short: as §3

common lambsquartes = test: Foliar spread test for upland field; type: in vivo, Chenopodium album; details: foliar spray 500 ppm, 3 weeks, rank vs non-treated
In short: as §3

livid amaranth [8] = test: Foliar spread test for upland field; type: in vivo, Amaranthus lividus; details: foliar spray 500 ppm, 3 weeks, rank vs non-treated
In short: as §3

morning glory = test: Foliar spread test for upland field; type: in vivo, Ipomoea spps.; details: foliar spray 500 ppm, 3 weeks, rank vs non-treated
In short: as §3

SMILES | Effect Young rice plant (young rice plant) | Effect Barnyardgrass (barnyardgrass [1]) | Effect Monochoria (monochoria) | Effects Corn (corn) | Effects Cotton (cotton) | Effects Solgum (solgum) | Effects Soybean (soybean) | Effects Sugar beat (sugar beat) | Effects Wheat (wheat) | Effects Large crabgrass (Large crabgrass) | Effects Barnyardgrass (barnyardgrass [2]) | Effects Blackgrass (blackgrass [3]) | Effects Annual bluegrass (annual bluegrass [4]) | Effects Livid amaranth (livid amaranth [5]) | Effects Blackgrass (blackgrass [6]) | Effects Annual bluegrass (annual bluegrass [7]) | Effects Common lambsquarters (common lambsquartes) | Effects Livid amaranth (livid amaranth [8]) | Effects Morning glory (morning glory)
CCC(Oc1cccc(C(F)(F)F)c1)c1nc2cc(F)ccc2o1 (centres unmarked) [Compound 120] | 1 | 4 | 5 | 0 | 0 | 1 | 0 | 3 | 0 | 5 | 4 | 3 | 5 | 3 | 2 | 1 | 4 | 5 | 5
CCC(Oc1ccc(F)c(C(F)(F)F)c1)c1nc2cc(Cl)ccc2o1 (centres unmarked) [Compound 139] | 2 | 5 | 5 | 2 | 1 | 2 | 1 | 5 | 1 | 5 | 3 | 5 | 5 | 5 | 2 | 3 | 5 | 5 | 5
CCC(Oc1cccc(C(F)(F)F)c1)c1nc2cc(Cl)ccc2o1 (centres unmarked) [Compound 140] | 1 | 5 | 5 | 0 | 0 | 1 | 0 | 3 | 0 | 5 | 4 | 4 | 5 | 5 | 2 | 2 | 4 | 4 | 3
CCCC(Oc1ccc(F)c(C(F)(F)F)c1)c1nc2cc(Cl)ccc2o1 (centres unmarked) [Compound 141] | 1 | 5 | 5 | 1 |  | 2 | 2 | 5 | 0 | 5 | 3 | 5 | 5 | 5 | 4 | 4 | 4 | 4 | 4
CCCC(Oc1cccc(C(F)(F)F)c1)c1nc2cc(Cl)ccc2o1 (centres unmarked) [Compound 142, 1-(5-chlorobenzoxazol-2-yl)-1-(3-(trifluoromethyl)phenoxy)butane] | 1 | 3 | 5 | 1 | 0 | 1 | 3 | 5 | 1 | 5 | 3 | 5 | 5 | 5 | 2 | 3 | 4 | 4 | 3
CCC(Oc1ccc(F)c(C(F)(F)F)c1)c1nc2cc(Br)ccc2o1 (centres unmarked) [Compound 165] | 2 | 4 | 5 | 2 | 0 | 1 | 0 | 5 | 0 | 5 | 5 | 4 | 5 | 5 | 3 | 2 | 3 | 4 | 4
CCC(Oc1ccc(F)c(C(F)(F)F)c1)c1nc2cc(C(F)(F)F)ccc2o1 (centres unmarked) [Compound 197] | 3 | 4 | 5 | 2 | 3 | 2 |  | 5 | 2 | 5 | 5 | 5 | 5 | 5 | 4 | 2 | 4 | 4 | 4
CCCC(Oc1cccc(C(F)(F)F)c1)c1nc2cc(F)c(C(F)(F)F)cc2o1 (centres unmarked) [Compound 474] |  | 2 | 5 | 2 | 1 | 1 | 2 | 5 | 1 | 5 | 5 | 5 | 5 | 5 | 2 | 3 | 5 | 5 | 5
CCCC(Oc1cccc(C(F)(F)F)c1)c1nc2cc(C#N)c(Cl)cc2o1 (centres unmarked) [Compound 532] |  | 5 | 5 | 1 | 1 | 1 | 1 | 5 | 2 | 5 | 5 | 5 | 5 | 5 | 4 | 4 | 5 | 5 | 3

Reference: US6706664B1, “Benzoxazole compounds, process for the preparation thereof and herbicides” (UBE Industries, Ltd., priority 1999, dated 2004)
